ChEMBL document CHEMBL4715703, “Engineering of a Novel Simplified Human Insulin-Like Peptide 5 Agonist” (J Med Chem, 2016)
Activity calls are given as the source filed them. The rule behind the calls is not given here. Where a SMILES comes first, the peptide text is derived from it. Bridges are numbered along the chain shown (N, C = ends). Roman numbers before positions name the chains, in order.

Legend:
Relaxin-3 receptor 2 [1] = target: T1, Relaxin-3 receptor 2 (Homo sapiens, UniProt Q8TDU9); experiment: Displacement of europium-labeled Eu(A)-mINSL5 from human RXFP4 expressed in CHO-K1 cells; format: cell-based
T1 sequence (Q8TDU9 whole entry): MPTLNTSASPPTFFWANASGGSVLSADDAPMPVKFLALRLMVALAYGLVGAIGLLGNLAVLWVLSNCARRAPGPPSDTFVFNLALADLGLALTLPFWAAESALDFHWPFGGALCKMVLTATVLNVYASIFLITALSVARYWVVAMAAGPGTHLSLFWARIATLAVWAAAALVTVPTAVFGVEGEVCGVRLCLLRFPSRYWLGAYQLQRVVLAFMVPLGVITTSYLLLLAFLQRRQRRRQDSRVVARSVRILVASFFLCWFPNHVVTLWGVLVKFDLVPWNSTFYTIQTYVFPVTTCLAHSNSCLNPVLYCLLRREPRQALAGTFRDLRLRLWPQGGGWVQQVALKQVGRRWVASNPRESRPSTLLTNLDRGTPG

Relaxin-3 receptor 2 [2] = target: T1, Relaxin-3 receptor 2; experiment: Agonist activity at human RXFP4 expressed in CHO-K1 cells assessed as reduction in forskolin-induced cAMP production by pCRE beta-galactosidase reporter assay; format: functional, cell-based
Relaxin-3 receptor 2 [3] = target: T1, Relaxin-3 receptor 2; experiment: Agonist activity at human RXFP4 expressed in CHO-K1 cells assessed as induction of ERK1/2 phosphorylation incubated for 5 mins by Alpha-screen sure-fire assay; format: cell-based; details: filed as agonist

SMILES	Ki (Relaxin-3 receptor 2 [1])	EC50 (Relaxin-3 receptor 2 [2])	Activity (Relaxin-3 receptor 2 [3])
CC[C@H](C)[C@@H]1NC(=O)[C@H](Cc2ccc(O)cc2)NC(=O)[C@H]([C@@H](C)CC)NC(=O)[C@H](C(C)C)NC(=O)[C@H]([C@@H](C)O)NC(=O)[C@H](CCCNC(=N)N)NC(=O)[C@H]([C@@H](C)CC)NC(=O)[C@H](Cc2ccc(O)cc2)NC(=O)[C@H](CCC(=O)O)NC(=O)[C@H](CC(C)C)NC(=O)CNC(=O)[C@@H](NC(=O)[C@H](CC(C)C)NC(=O)[C@H](CCCNC(=N)N)NC(=O)[C@@H](NC(=O)[C@H](CO)NC(=O)[C@H](CCC(=O)O)NC(=O)[C@@H](N)CCCCN)C(C)C)CSSC[C@@H]2NC(=O)[C@@H](NC(=O)[C@H](CC(C)C)NC(=O)[C@@H](NC(=O)[C@H](CCC(N)=O)NC(=O)[C@H](CC(C)C)NC(=O)[C@H](CC(=O)O)NC(=O)C3CCC(=O)N3)[C@@H](C)O)CSSC[C@H](NC(=O)CNC(=O)[C@H](CCC(=O)O)NC(=O)[C@H]([C@@H](C)O)NC2=O)C(=O)N[C@@H](CO)C(=O)N[C@@H](CCSC)C(=O)N[C@@H]([C@@H](C)O)C(=O)N[C@@H](CC(=O)O)C(=O)N[C@@H](CC(C)C)C(=O)N[C@@H](CO)C(=O)N[C@@H](C)C(=O)N[C@@H](CC(C)C)C(=O)N[C@H](C(=O)O)CSSC[C@@H](C(=O)N[C@@H](C)C(=O)N[C@@H](CO)C(=O)N[C@@H](CO)C(=O)N[C@@H](CCCNC(=N)N)C(=O)N[C@@H](Cc2c[nH]c3ccccc23)C(=O)O)NC1=O (stereo partly specified)	33.1 nM	4.57 nM	Active
CC[C@H](C)[C@@H]1NC(=O)[C@H](Cc2ccc(O)cc2)NC(=O)[C@H]([C@@H](C)CC)NC(=O)[C@H](C(C)C)NC(=O)[C@H]([C@@H](C)O)NC(=O)[C@H](CCCNC(=N)N)NC(=O)[C@H]([C@@H](C)CC)NC(=O)[C@H](Cc2ccc(O)cc2)NC(=O)[C@H](CCC(=O)O)NC(=O)[C@H](CC(C)C)NC(=O)CNC(=O)[C@@H](NC(=O)[C@H](CC(C)C)NC(=O)[C@H](CCCNC(=N)N)NC(=O)[C@@H](NC(=O)[C@H](CO)NC(=O)[C@H](CCC(=O)O)NC(=O)[C@@H](N)CCCCN)C(C)C)CSSC[C@H](N)C(=O)N[C@@H]([C@@H](C)O)C(=O)N[C@@H](CC(=O)O)C(=O)NCC(=O)N[C@@H](C)C(=O)N[C@@H](CO)C(=O)N[C@@H](CCSC)C(=O)N[C@@H](CCCCN)C(=O)N[C@@H](CC(=O)O)C(=O)N[C@@H](CC(C)C)C(=O)N[C@@H](CO)C(=O)N[C@@H](C)C(=O)N[C@@H](CC(C)C)C(=O)N[C@H](C(=O)O)CSSC[C@@H](C(=O)N[C@@H](C)C(=O)N[C@@H](CO)C(=O)N[C@@H](CO)C(=O)N[C@@H](CCCNC(=N)N)C(=O)N[C@@H](Cc2c[nH]c3ccccc23)C(=O)O)NC1=O (I: H-KESVRLCGLEYIRTVIYICASSRW-OH / II: H-CTDGASMKDLSALC-OH; disulfide I:7-II:1, I:19-II:14)	29.5 nM	20.9 nM	Active
